Measurements: ChEMBL document CHEMBL1141986, “Molecular docking of the highly hypolipidemic agent alpha-asarone with the catalytic portion of HMG-CoA reductase” (Bioorg Med Chem Lett, 2005)

What was measured:
[1] = target: T1, 3-hydroxy-3-methylglutaryl-coenzyme A reductase (Homo sapiens, UniProt P04035); assay: Inhibitory constant against HMG-CoA reductase
T1 sequence (P04035 whole entry): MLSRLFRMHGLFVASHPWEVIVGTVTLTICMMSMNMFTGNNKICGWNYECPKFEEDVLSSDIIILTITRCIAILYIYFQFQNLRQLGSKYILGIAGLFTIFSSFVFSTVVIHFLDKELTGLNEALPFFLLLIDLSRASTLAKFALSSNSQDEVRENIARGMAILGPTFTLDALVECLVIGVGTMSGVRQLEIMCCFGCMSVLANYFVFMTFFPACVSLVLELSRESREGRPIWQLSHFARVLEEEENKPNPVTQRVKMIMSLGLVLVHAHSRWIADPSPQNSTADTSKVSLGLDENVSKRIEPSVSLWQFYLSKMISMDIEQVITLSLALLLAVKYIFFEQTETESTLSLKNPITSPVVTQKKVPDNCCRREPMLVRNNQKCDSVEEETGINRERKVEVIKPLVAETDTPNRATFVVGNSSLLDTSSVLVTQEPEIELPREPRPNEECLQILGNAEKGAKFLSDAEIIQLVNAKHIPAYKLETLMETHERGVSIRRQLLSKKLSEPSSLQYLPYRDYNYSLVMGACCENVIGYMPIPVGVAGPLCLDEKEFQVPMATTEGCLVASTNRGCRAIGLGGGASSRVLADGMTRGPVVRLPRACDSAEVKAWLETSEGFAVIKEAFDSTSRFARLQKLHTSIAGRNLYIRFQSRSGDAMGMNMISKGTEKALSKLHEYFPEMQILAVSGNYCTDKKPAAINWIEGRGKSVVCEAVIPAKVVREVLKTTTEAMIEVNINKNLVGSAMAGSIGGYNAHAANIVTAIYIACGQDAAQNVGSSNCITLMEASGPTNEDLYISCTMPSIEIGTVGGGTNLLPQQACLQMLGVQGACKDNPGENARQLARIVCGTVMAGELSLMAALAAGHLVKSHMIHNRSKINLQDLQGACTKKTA

[2] = target: T1, 3-hydroxy-3-methylglutaryl-coenzyme A reductase; assay: Inhibitory constant against HMG-CoA reductase with alpha asarone
[3] = target: T1, 3-hydroxy-3-methylglutaryl-coenzyme A reductase; assay: Inhibitory concentration against HMG-CoA reductase

Ki [1] [nM]	Ki [2] [µM]	IC50 [3] [nM]	SMILES
0.9	71	5.4	CC(C)c1nc(N(C)S(C)(=O)=O)nc(-c2ccc(F)cc2)c1/C=C/[C@@H](O)C[C@@H](O)CC(=O)O [ROSUVASTATIN]
23.5	–	4000	CC(O)(CC(=O)O)CC(=O)O [MEGLUTOL]
